Laboratory results published in patent US10669272B2, “Substituted naphthyridinone compounds useful as T cell activators” (BRISTOL-MYERS SQUIBB COMPANY, priority 2018, dated 2020).
Read-outs that look alike come from different tables or passages of the source.

Columns and labels:
human DGKα = target: T1, human DGKα (Homo sapiens, UniProt P23743); assay: DGKα LIPGLO assay (extruded liposome substrate), in vitro DGK inhibition; type: biochemical; conditions: read-out: DGKa LIPGLO IC50
T1 construct: TVMV protease cleavage site (C); Hexa-His (C); made in house; host or cells: Sf9 insect cells (baculovirus, Bac-to-Bac)
T1 sequence (P23743 with tags, fused parts or gaps): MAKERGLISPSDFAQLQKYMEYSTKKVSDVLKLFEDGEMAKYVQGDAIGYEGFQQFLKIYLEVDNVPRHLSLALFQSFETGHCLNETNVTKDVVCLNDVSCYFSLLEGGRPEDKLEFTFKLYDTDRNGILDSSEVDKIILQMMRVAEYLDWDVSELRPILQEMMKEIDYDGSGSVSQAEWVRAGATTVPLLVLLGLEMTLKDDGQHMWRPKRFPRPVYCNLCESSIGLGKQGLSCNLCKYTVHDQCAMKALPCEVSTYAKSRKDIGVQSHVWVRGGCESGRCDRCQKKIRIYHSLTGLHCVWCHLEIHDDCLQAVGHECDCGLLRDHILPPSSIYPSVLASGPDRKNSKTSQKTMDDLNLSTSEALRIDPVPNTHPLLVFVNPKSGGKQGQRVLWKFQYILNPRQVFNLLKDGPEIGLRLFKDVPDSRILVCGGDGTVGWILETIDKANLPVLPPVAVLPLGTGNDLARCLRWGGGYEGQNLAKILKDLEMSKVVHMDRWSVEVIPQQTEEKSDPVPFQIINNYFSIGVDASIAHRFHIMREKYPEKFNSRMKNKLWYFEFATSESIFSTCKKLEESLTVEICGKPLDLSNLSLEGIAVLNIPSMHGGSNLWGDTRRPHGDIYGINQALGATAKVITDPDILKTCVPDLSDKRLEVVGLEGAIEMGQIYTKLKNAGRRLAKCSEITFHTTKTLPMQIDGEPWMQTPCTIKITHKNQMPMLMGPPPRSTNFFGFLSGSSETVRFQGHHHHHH

human DGKζ = target: T2, human DGKζ (Homo sapiens, UniProt Q13574); assay: DGKζ LIPGLO assay (extruded liposome substrate), in vitro DGK inhibition; type: biochemical; conditions: read-out: DGKz LIPGLO IC50
T2 construct: TVMV protease cleavage site (C); Hexa-His (C); made in house; host or cells: Sf9 insect cells (baculovirus, Bac-to-Bac)
T2 sequence (Q13574 with tags, fused parts or gaps isoform Q13574-4): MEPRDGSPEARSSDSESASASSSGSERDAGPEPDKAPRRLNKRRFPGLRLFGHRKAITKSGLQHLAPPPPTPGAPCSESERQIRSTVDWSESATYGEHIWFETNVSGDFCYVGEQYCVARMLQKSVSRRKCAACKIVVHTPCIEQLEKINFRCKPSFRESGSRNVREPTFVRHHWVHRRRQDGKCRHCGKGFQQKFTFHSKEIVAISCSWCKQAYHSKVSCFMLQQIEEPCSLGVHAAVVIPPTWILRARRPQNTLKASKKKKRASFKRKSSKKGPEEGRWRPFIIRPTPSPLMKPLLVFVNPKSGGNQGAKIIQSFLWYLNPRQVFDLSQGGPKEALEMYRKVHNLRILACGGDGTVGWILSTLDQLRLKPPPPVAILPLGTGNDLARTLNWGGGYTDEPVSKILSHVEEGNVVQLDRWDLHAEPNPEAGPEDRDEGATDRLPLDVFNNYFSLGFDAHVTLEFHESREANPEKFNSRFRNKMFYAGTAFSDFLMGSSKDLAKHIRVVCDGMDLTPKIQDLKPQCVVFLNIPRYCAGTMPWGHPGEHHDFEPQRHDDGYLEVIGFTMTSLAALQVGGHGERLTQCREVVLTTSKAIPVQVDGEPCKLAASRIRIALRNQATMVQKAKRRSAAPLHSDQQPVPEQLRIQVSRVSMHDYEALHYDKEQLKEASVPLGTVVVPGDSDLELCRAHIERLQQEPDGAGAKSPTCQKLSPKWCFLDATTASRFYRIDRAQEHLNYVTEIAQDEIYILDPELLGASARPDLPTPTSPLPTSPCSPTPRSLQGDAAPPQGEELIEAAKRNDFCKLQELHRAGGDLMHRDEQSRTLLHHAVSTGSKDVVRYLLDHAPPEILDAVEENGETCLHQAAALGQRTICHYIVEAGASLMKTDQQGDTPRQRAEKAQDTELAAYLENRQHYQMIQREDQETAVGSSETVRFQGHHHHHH

Human venous whole blood = assay: Human whole blood IFN-γ assay; type: cell-based; conditions: human whole blood, read-out: INFg Whole Blood Normalized Agonist EC50;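 note: blood from healthy donors exposed to compound for 1 h before stimulation with anti-CD3 and anti-CD28 at 1 µg/mL each, IFN-γ quantified in supernatant by AlphaLISA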
[1] = Homo sapiens, 24 h, normalized to 3 μM reference compound with anti-CD3 plus anti-CD28 as 100% activation
[2] = normalized to 3 μM reference compound with anti-CD3 plus anti-CD28 as 100% activation
[3] = anti-CD3 plus anti-CD28, 24 hours, 3 μM reference compound = 100% activation
[4] = Homo sapiens, 24 h, anti-CD3 plus anti-CD28, 24 hours, 3 μM reference compound = 100% activation

IC50 (human DGKα; liposome (LIPGLO) assay) [nM]	IC50 (human DGKζ; liposome (LIPGLO) assay) [nM]	IC50 (human DGKα; DGKα liposome (LIPGLO) assay) [nM]	IC50 (human DGKζ; DGKζ liposome (LIPGLO) assay) [nM]	SMILES	EC50 (Human venous whole blood; [1]) [nM]	EC50 (Human venous whole blood; [2]) [nM]	EC50 (Human venous whole blood; [3]) [nM]	EC50 (Human venous whole blood; [4]) [nM]
12000	280			C[C@@H]1CN(c2cc(=O)n(C)c3ccc(C#N)nc23)[C@@H](C)CN1C(c1ccc(F)cc1)c1cccc2ccnn12 (single isomer, unassigned) [Example 695]	4900			
290	4200			C[C@@H]1CN(c2cc(=O)n(C)c3ccc(C#N)nc23)[C@@H](C)CN1Cc1cc(C#N)cs1 [Example 1422, 8-((2S,5R)-4-((4-cyanothiophen-2-yl)methyl)-2,5-dimethylpiperazin-1-yl)-5-methyl-6-oxo-5,6-dihydro-1,5-naphthyridine-2-carbonitrile]	6900			
14000	1400			CCC(c1cc(OC(F)(F)F)ccc1F)N1C[C@H](C)N(c2cc(=O)n(C)c3ccc(C#N)nc23)C[C@H]1C (stereo partly drawn) [Example 1207]		13000		
1500	1700			COC[C@@H]1CN(c2cc(=O)n(C)c3ccc(C#N)nc23)[C@@H](C)CN1C(C)c1ccc(F)cc1 (single isomer, unassigned) [Example 1160]	1100			
340	630			CCC(c1ccc(OC(F)(F)F)cc1)N1C[C@H](CC)N(c2cc(=O)n(C)c3ccc(C#N)nc23)C[C@H]1CC (single isomer, unassigned) [Example 1060]	2500			
		1900	59	C[C@@H]1CN(c2cc(=O)n(C)c3ccc(C#N)nc23)[C@@H](C)CN1C(c1ccc(F)cc1)c1cnn(C2CC2)c1 (single isomer, unassigned) [Example 726]			800	
		530	190	CC1CN(C(c2ccc(F)cc2)c2nc(C(C)(C)C)no2)C(C)CN1c1c(C#N)c(=O)n(C)c2ccc(C#N)nc12 (single isomer, unassigned) [Example 863]			720	
300	520			CC[C@H]1CN(C(c2ccc(F)cc2)c2ccc(C#N)cc2)[C@H](CC)CN1c1cc(=O)n(C)c2ccc(C#N)nc12 (stereo partly drawn) [Example 1036]		200		
		860	9900	COc1ccc(C(C)N2C[C@H](C)N(c3c(C#N)c(=O)n(C)c4ccc(C#N)nc34)C[C@H]2C)nc1 (single isomer, unassigned) [Example 799]			20000	
		11000	11000	C[C@@H]1CN(c2c(C#N)c(=O)n(C)c3ccc(C#N)nc23)[C@@H](C)CN1C(c1ccccc1)c1ccc(Cl)cc1 (stereo partly drawn) [Example 835]			20000	
1300	12000			C[C@@H]1CN(c2cc(=O)n(C)c3ccc(C#N)nc23)[C@@H](C)CN1C(c1ccc(F)cc1)c1ccon1 (single isomer, unassigned) [Example 706]		2900		
		1500	9600	C[C@@H]1CN(c2c(C#N)c(=O)n(C)c3ccc(C#N)nc23)[C@@H](C)CN1C(c1ccc(Cl)cc1)c1ccc(F)cn1 (single isomer, unassigned) [Example 830]			1900	
		1300	1500	C[C@@H]1CN(c2c(C#N)c(=O)n(C)c3ccc(C#N)nc23)CCN1C(c1ccc(F)cc1)c1ccc(C(F)(F)F)cc1 (single isomer, unassigned) [Example 914]			1900	
6600	51000			C[C@@H]1CN(c2cc(=O)n(C)c3ccc(C#N)nc23)[C@@H](C)CN1C(c1ccc(F)cc1)c1nccn1C (stereo partly drawn) [Example 713]		13000		
330	4600			C[C@@H]1CN(c2cc(=O)n(C)c3ccc(C#N)nc23)[C@@H](C)CN1C(c1ccc(C#N)cc1)c1ccc(F)cn1 (single isomer, unassigned) [Example 463]		3700		
5500	19000			C[C@@H]1CN(c2cc(=O)n(C)c3ccc(C#N)nc23)[C@@H](C)CN1C(c1c(F)cc(O)cc1F)C(F)(F)F (single isomer, unassigned) [Example 592]	3600			
9200	810			CC[C@H]1CN(C(C)c2ccc(OC(F)(F)F)cc2)[C@H](COC)CN1c1cc(=O)n(C)c2ccc(C#N)nc12 (single isomer, unassigned) [Example 1409]	2300			
		8600	680	COc1ncccc1C(c1ccc(F)cc1)N1CCN(c2c(C#N)c(=O)n(C)c3ccc(C#N)nc23)C[C@H]1C (single isomer, unassigned) [Example 894]			4000	
1500	7000			C[C@@H]1CN(c2c(C#N)c(=O)n(C)c3ccc(C#N)nc23)CCN1C(c1ccc(F)cc1)c1cnsc1 (stereo partly drawn) [Example 1028]	2800			

IC50 (human DGKα; liposome (LIPGLO) assay) [nM]	IC50 (human DGKζ; liposome (LIPGLO) assay) [nM]	IC50 (human DGKα; DGKα liposome (LIPGLO) assay) [nM]	IC50 (human DGKζ; DGKζ liposome (LIPGLO) assay) [nM]	SMILES	EC50 (Human venous whole blood; [1]) [nM]	EC50 (Human venous whole blood; [2]) [nM]	EC50 (Human venous whole blood; [3]) [nM]	EC50 (Human venous whole blood; [4]) [nM]
22000	3600			CCC(c1ccc(OC(C)C)cc1)N1C[C@H](C)N(c2cc(=O)n(C)c3ccc(C#N)nc23)C[C@H]1C (single isomer, unassigned) [Example 1450]		6800		
2500	2800			C[C@@H]1CN(c2cc(=O)n(C)c3ccc(C#N)nc23)[C@@H](C)CN1Cc1noc2ccccc12 [Example 1433]	13000			
120	16			CC[C@@H]1CN(c2cc(=O)n(C)c3ccc(C#N)nc23)[C@@H](C)CN1C(C)c1ccc(Cl)cc1F (single isomer, unassigned) [Example 1352]	28			
360	32			CC[C@@H]1CN(c2cc(=O)n(C)c3ccc(C#N)nc23)[C@@H](C)CN1C(C)c1ccc(C(F)(F)F)cc1F (single isomer, unassigned) [Example 1085]		160		
		2000	7000	Cc1cc(C(C)N2C[C@H](C)N(c3c(C#N)c(=O)n(C)c4ccc(C#N)nc34)C[C@H]2C)no1 (single isomer, unassigned) [Example 803]				20000
5400	5900			C[C@@H]1CN(c2cc(=O)n(C)c3ccc(C#N)nc23)[C@@H](C)CN1C(c1c(F)cc(O)cc1F)C(F)(F)F (single isomer, unassigned) [Example 627]	5100			
1100	110			C[C@@H]1CN(c2cc(=O)n(C)c3ccc(C#N)nc23)[C@@H](C)CN1C(c1ccc(Cl)cc1)c1ccc(F)c2c1OC(C)(C)C2 (single isomer, unassigned) [Example 458]	510			
38	100			C[C@@H]1CN(c2cc(=O)n(C)c3ccc(C#N)nc23)[C@@H](C)CN1C(c1ccc(Cl)cc1)c1nc(C2CC2)no1 (single isomer, unassigned) [Example 1286]		270		
2500	2000			CC[C@H]1CN(C(C)c2ccc(C(F)(F)F)cc2)[C@H](CC)CN1c1cc(=O)n(C)c2ccc(C#N)nc12 (single isomer, unassigned) [Example 1052]		190		
310	2000			C[C@@H]1CN(c2cc(=O)n(C)c3ccc(C#N)nc23)[C@@H](C)CN1Cc1ccc(Cl)cc1 [Example 604]	4800			
460	320			CC[C@@H]1CN(c2cc(=O)n(C)c3ccc(C#N)nc23)[C@@H](C)CN1Cc1ccc(F)cc1F [Example 1077]	140			
		310	11	C[C@@H]1CN(c2cc(=O)n(C)c3ccc(C#N)nc23)[C@@H](C)CN1C(c1ccc(F)cc1)c1csc(C2CC2)n1 (single isomer, unassigned) [Example 723]				450
		3600	13000	C[C@@H]1CN(c2c(C#N)c(=O)n(C)c3ccc(C#N)nc23)CCN1C(c1ccc(F)cc1)c1cocn1 (stereo partly drawn) [Example 1023]			3500	
		5500	1900	Cc1ccc(C(c2cccc(F)c2)N2CCN(c3c(C#N)c(=O)n(C)c4ccc(C#N)nc34)C[C@H]2C)nc1 (single isomer, unassigned) [Example 923]				800
		4400	10000	C[C@@H]1CN(c2c(C#N)c(=O)n(C)c3ccc(C#N)nc23)[C@@H](C)CN1C(c1ccc(F)cc1)c1ccc(F)cn1 (stereo partly drawn) [Example 827]			1300	
52	25			CCC(c1ccc(C2CC2)cc1F)N1C[C@H](CC)N(c2cc(=O)n(C)c3ccc(C#N)nc23)C[C@H]1CC (single isomer, unassigned) [Example 1359]		44		
170	430			CC[C@H]1CN(C(c2ccc(Cl)cc2)c2ccc(F)cn2)[C@H](C)CN1c1cc(=O)n(C)c2ccc(C#N)nc12 (single isomer, unassigned) [Example 1130]		280		
26	17			C[C@@H]1CN(c2cc(=O)n(C)c3ccc(C#N)nc23)[C@@H](C)CN1C(c1ccc(Cl)cc1)c1nc(C2CC2)no1 (single isomer, unassigned) [Example 1285]		92		
		170	1400	Cc1ccc(C(c2ccc(F)cc2)N2CCN(c3c(C#N)c(=O)n(C)c4ccc(C#N)nc34)C[C@H]2C)nc1 (single isomer, unassigned) [Example 904]				520
